Assay results as given in patent publication US20220354817A1, “PHARMACEUTICAL COMPOSITION FOR PREVENTING OR TREATING SARCOPENIA CONTAINING NON-NATURAL AMINO ACID DERIVATIVE” (MYO-TEC-SCI, priority 2019, published 2022).
Counter-ions that a name gives are not always drawn.

Legend:
myostatin promoter = test: Myostatin promoter activity, dual luciferase assay in C2C12 cells transfected with pGL4.15-MSTN; type: cell-based, mouse; settings: for inhibition of myostatin promoter activity: 0.1 mM and 1 mM in medium without L-leucine; for inhibition of myostatin promoter activity / decrease in myostatin promoter activity compared to L-leucine: C2C12; for decrease in myostatin promoter activity compared to L-leucine: 1 mM in medium without L-leucine
Procedure: After seeding 1×10^5 cells of mouse skeletal muscle cells C2C12 (ATCC, US) in a 12-well culture plate, on the next day, pGL4.15 empty vector and pGL4.15-MSTN vector containing myostatin promoter were transfected using Lipofectamine 2000 for 4 hours. […] After one day, a dual luciferase assay kit (Promega Inc.) was used to measure the promoter activity of myostatin.

myostatin mRNA = test: Myostatin mRNA expression by qRT-PCR in C2C12 cells, corrected with beta-actin; type: cell-based, mouse; settings: for inhibition of myostatin mRNA expression: 0.1 mM and 1 mM in medium without L-leucine
From the text: […] After one day, the mRNA expression level of myostatin was identified using qRT-PCR, and the myostatin mRNA expression value was corrected using the expression value of beta-actin.

[1] = system: mouse skeletal muscle cells C2C12; test: Degree of differentiation of C2C12 cells and number of differentiated intracellular nuclei; type: cell-based; settings: 1 mM in differentiation medium, C2C12 grown without L-leucine; for cells in which differentiation occurs, compared to L-leucine: days 1, 6, 9
Procedure: (§1) To observe how L-leucine and D-Leu-OMe-HCl act on the differentiation of mouse skeletal muscle cells C2C12, a differentiation medium containing 1 mM L-leucine and D-Leu-OMe-HCl was given to mouse skeletal muscle cells C2C12 continuously grown in a medium without L-leucine, respectively. On days 1, 6, and 9, the degree of differentiation of mouse skeletal muscle cells and the number of nuclei present in the differentiated cells were measured (see FIG. 13).
as §1, with “D-Leu-BOC—H2O” for “D-Leu-OMe-HCl”, “15).” for “13).”

[2] = 1 mM in medium without L-leucine, C2C12
[3] = 0.1 mM in medium without L-leucine, C2C12, after one day

Compound	inhibition of myostatin promoter activity (myostatin promoter)	decrease in myostatin promoter activity compared to L-leucine (myostatin promoter)	inhibition of myostatin mRNA expression (myostatin mRNA; C2C12)	decrease of myostatin mRNA expression level relative to L-leucine (myostatin mRNA; [2])	cells containing 6 or more nuclei [1]	cells in which differentiation occurs, compared to L-leucine [1]	decrease in myostatin mRNA expression level compared to L-leucine (myostatin mRNA; 0.1 mM in medium without L-leucine, C2C12)	decrease in myostatin mRNA expression level compared to L-leucine (myostatin mRNA; [2])	myostatin promoter activity (myostatin promoter; [3])	expression of myostatin mRNA (myostatin mRNA; [3])
CC(C)CC(NC(=O)OC(C)(C)C)C(=O)O [D-Leu-BOC—H2O]	inhibited	about 1.89 times	inhibited	similarly to L-leucine	observed statistically significantly	relatively large number of cells in which differentiation occurs				
COC(=O)C(N)CC(C)C [D-Leu-OMe-HCl]	inhibited	about 1.96 times	inhibited		observed statistically significantly	relatively large number of cells in which differentiation occurs	about 1.97 times	about 3.68 times		
CC(C)C[C@H](N)C(=O)OC(C)(C)C.Cl [L-Leu-OtBu-HCl]									significantly reduced	decreased
CC(C)C[C@H](N)C(=O)O [L-leucine, reference compound]	inhibited		inhibited							
